Results as given in US20080293691A1, “Treatment Method” (SMITHKLINE BEECHAM CORPORATION, priority 2005, published 2008).

What was measured:
[1] = system: choroidal neovascularization (CNV); test: Prevention model for CNV (treatment begun before laser-induced retinal injury in mice); type: in vivo; conditions: oral twice daily from one day before retinal burning, 100 mg/kg Example 1, 45 mg/kg Example 3, or both, read fourteen days after burning, FIG. 2
Method: See the Examples section for additional information.
(§1) Mice were anesthetized and the pupils were dilated. Burns of krypton laser photocoagulation were delivered to the retina. Administration of the compound described in Example 1 was initiated seven days after the laser-induced injury. Oral doses of either the vehicle alone or vehicle containing the compound of formula (I) (designated as VEGF R in FIG. 1) at a dose or 4 mg/kg, 20 mg/kg, or 100 mg/kg were administered twice daily for seven days. After seven day of treatment, the mice were perfused with fluorescein-labeled dextran, and the area of choroidal neovascularization was quantitated.
In this experiment, the compound described in Example 1 (Designated as VEGF R in FIG. 2), Example 3 (designated as vitronectin in FIG. 2), or a combination of the compounds described in Example 1 and Example 3 (designated as “both” in FIG. 2) were administered to each mouse beginning one day before retinal burning was performed according to the methods described in Example 4. The compounds were administered orally twice daily at a dosage of 100 mg/kg for the compound of Example 1 or 45 mg/kg for the compound of Example 3. Fourteen days after the retinal burning, the CNV area was quantitated as described above.

[2] = system: choroidal neovascularization (CNV); test: Regression model for CNV (laser-induced choroidal neovascularization in mice); type: in vivo; conditions: oral 4, 20 or 100 mg/kg twice daily for seven days, started seven days after laser-induced injury, compared with vehicle/untreated
Source text: In this regression model, CNV was induced in mice by laser burns on the posterior pole of the retina. Seven days after the laser-induced injury, the mice began a regime in which they were given either vehicle alone or 5-[[4-[(2,3-Dimethyl-2H-indazol-6-yl)methylamino]-2-pyrimidinyl]amino]-2-methylbenzenesulfonamide at the indicated doses. Seven days after this regime was initiated, the size of the CNV lesions was quantitated. See the Examples section for additional information.
as §1

Compound	CNV area (size of choroidal neovascular lesions) [1]	area of choroidal neovascularization (size of CNV lesions) ([2]; FIG. 1)	area of choroidal neovascularization (size of CNV lesions) ([2]; FIG. 1, listed as Pazopanib)
O=C(O)C[C@@H]1Cc2ccc(OCCCNc3ccccn3)cc2CN(CC(F)(F)F)C1=O [Example 3, (S)-3-oxo-8-[3-(pyridin-2-ylamino)-1-propyloxy]-2-(2,2,2-trifluoroethyl)-2,3,4,5-tetrahydro-1H-2-benzazepine-4-acetic acid]	a decrease in size of the resulting choroidal neovascular lesions	–	–
Cc1ccc(Nc2nccc(N(C)c3ccc4c(C)n(C)nc4c3)n2)cc1S(N)(=O)=O [pazopanib, 5-({4-[(2,3-dimethyl-2H-indazol-6-yl)(methyl)amino]pyrimidin-2-yl}amino)-2-methylbenzenesulfonamide]	a decrease in size of the resulting choroidal neovascular lesions	a decrease in the size of the resulting choroidal neovascular lesions	decreased the CNV area in a dose-specific manner
